Measured values published in ChEMBL document CHEMBL4765385, “Synthesis and biological evaluation of β-lapachone-monastrol hybrids as potential anticancer agents” (Eur J Med Chem, 2020).
The source made the active and inactive calls. No cut-off for these calls is given here.

How the values were obtained:
HepG2 [1] = assay: Antitumor activity against human HepG2 cells xenografted in BALB/c athymic nude mouse assessed as tumor growth inhibition at 20 mg/kg, iv administered at 2 days interval 19 days by caliper method relative to control; format: functional; conditions: 456 h, time 19 day, read-out: TGI
HepG2 [2] = assay: Induction of apoptosis in human HepG2 cells assessed as viable cells at 1.6 uM measured after 24 hrs by Annexin V-FITC/propidium iodide staining based flow cytometry (reference value: 94.73%); format: functional; conditions: read-out: Activity
HepG2 [3] = assay: Induction of apoptosis in human HepG2 cells assessed as early apoptotic cells at 1.6 uM measured after 24 hrs by Annexin V-FITC/propidium iodide staining based flow cytometry (reference value: 2.65%); format: functional
HepG2 [4] = assay: Cell cycle arrest in human HepG2 cells assessed as accumulation at G0/G1 phase at 1.2 uM measured after 24 hrs by propidium iodide staining based flow cytometry analysis (reference value: 46.76%); format: functional
HepG2 [5] = assay: Induction of apoptosis in human HepG2 cells assessed as viable cells at 0.8 uM measured after 24 hrs by Annexin V-FITC/propidium iodide staining based flow cytometry (reference value: 94.73%); format: functional; conditions: read-out: Activity
HepG2 [6] = assay: Induction of apoptosis in human HepG2 cells assessed as necrotic cells at 3.2 uM measured after 24 hrs by Annexin V-FITC/propidium iodide staining based flow cytometry (reference value: 0.35%); format: functional
[7] = Toxicity in human HepG2 cells xenografted BALB/c athymic nude mouse assessed as change in body weight at 20 mg/kg, iv administered at 2 days interval 19 days; format: organism-based; conditions: in vivo, 456 h, time 19 day
in vitro = conditions: human, L02 cells and A549 cells
NCI-H596 [8] = assay: Antiproliferative activity against human NCI-H596 cells measured after 48 hrs by MTT assay; format: functional, cell-based; conditions: NCI-H596, 48 h
HepG2 [9] = assay: Induction of apoptosis in human HepG2 cells assessed as late apoptotic cells at 0.8 uM measured after 24 hrs by Annexin V-FITC/propidium iodide staining based flow cytometry (reference value: 2.27%); format: functional
NCI-H596 [10] = assay: Induction of apoptosis in human NCI-H596 cells assessed as viable cells at 1.6 uM measured after 24 hrs by Annexin V-FITC/propidium iodide staining based flow cytometry (reference value: 95.17%); format: functional; conditions: read-out: Activity
NCI-H596 [11] = assay: Induction of apoptosis in human NCI-H596 cells assessed as early apoptotic cells at 1.6 uM measured after 24 hrs by Annexin V-FITC/propidium iodide staining based flow cytometry (reference value: 2.28%); format: functional
HepG2 [12] = assay: Induction of apoptosis in human HepG2 cells assessed as early apoptotic cells at 0.8 uM measured after 24 hrs by Annexin V-FITC/propidium iodide staining based flow cytometry (reference value: 2.65%); format: functional
HepG2 [13] = assay: Induction of apoptosis in human HepG2 cells assessed as late apoptotic cells at 3.2 uM measured after 24 hrs by Annexin V-FITC/propidium iodide staining based flow cytometry (reference value: 2.27%); format: functional
HepG2 [14] = assay: Induction of apoptosis in human HepG2 cells assessed as necrotic cells at 0.8 uM measured after 24 hrs by Annexin V-FITC/propidium iodide staining based flow cytometry (reference value: 0.35%); format: functional
L02 = assay: Cytotoxicity against human L02 cells measured after 48 hrs by MTT assay; format: cell-based; conditions: L02, 48 h
A549 [15] = assay: Antiproliferative activity against human A549 cells measured after 48 hrs in presence of NQO1 inhibitor dicoumarol by MTT assay; format: functional, cell-based; conditions: A549, 48 h
A549 [16] = assay: cells; conditions: Homo sapiens, A549, 48 h
HepG2 [17] = assay: Induction of apoptosis in human HepG2 cells assessed as late apoptotic cells at 1.6 uM measured after 24 hrs by Annexin V-FITC/propidium iodide staining based flow cytometry (reference value: 2.27%); format: functional
NCI-H596 [18] = assay: Induction of reactive oxygen species production in human NCI-H596 cells at 5 uM measured after 5 hrs by DCFH-DA staining based flow cytometry; format: functional, cell-based
[19] = molecular target: NAD(P)H dehydrogenase [quinone] 1 (Homo sapiens, UniProt P15559); assay: Substrate activity at recombinant human C-terminal His-tagged NQO1 (1 to 274 residues) expressed in Escherichia coli assessed as metabolic rate by measuring NADPH oxidation per micromol protein at 10 mmol/L measured at 5 secs interval for 1 min by UV-Visible Spectrophotometric method; format: ADME
HepG2 [20] = assay: Antiproliferative activity against human HepG2 cells measured after 48 hrs by MTT assay; conditions: HepG2, 48 h
HepG2 [21] = assay: Cell cycle arrest in human HepG2 cells assessed as accumulation at G0/G1 phase at 2.4 uM measured after 24 hrs by propidium iodide staining based flow cytometry analysis (reference value: 46.76%); format: functional
HepG2 [22] = assay: Induction of apoptosis in human HepG2 cells assessed as viable cells at 3.2 uM measured after 24 hrs by Annexin V-FITC/propidium iodide staining based flow cytometry (reference value: 94.73%); format: functional; conditions: read-out: Activity
HepG2 [23] = assay: Induction of reactive oxygen species production in human HepG2 cells at 5 uM measured after 5 hrs by DCFH-DA staining based flow cytometry; format: functional, cell-based
NCI-H596 [24] = assay: Induction of apoptosis in human NCI-H596 cells assessed as late apoptotic cells at 1.6 uM measured after 24 hrs by Annexin V-FITC/propidium iodide staining based flow cytometry (reference value: 1.91%); format: functional
HepG2 [25] = assay: Cell cycle arrest in human HepG2 cells assessed as accumulation at G0/G1 phase at 0.6 uM measured after 24 hrs by propidium iodide staining based flow cytometry analysis (reference value: 46.76%); format: functional
HepG2 [26] = assay: Induction of apoptosis in human HepG2 cells assessed as early apoptotic cells at 3.2 uM measured after 24 hrs by Annexin V-FITC/propidium iodide staining based flow cytometry (reference value: 2.65%); format: functional
NCI-H596 [27] = assay: Induction of apoptosis in human NCI-H596 cells assessed as necrotic cells at 1.6 uM measured after 24 hrs by Annexin V-FITC/propidium iodide staining based flow cytometry (reference value: 0.64%); format: functional
HepG2 [28] = assay: Induction of apoptosis in human HepG2 cells assessed as necrotic cells at 1.6 uM measured after 24 hrs by Annexin V-FITC/propidium iodide staining based flow cytometry (reference value: 0.35%); format: functional

## COc1ccc2c(c1)C(=O)C(=O)C1=C2NC(=S)NC1c1cccc(O)c1 (stereo not given)
HepG2 [1]
  inhibition in vivo at 20 mg/kg: 58.1%
HepG2 [2]
  viability at 1.6 µM: 78.1%
HepG2 [3]
  Activity: 9.89%
HepG2 [4]
  Activity: 49.6%
HepG2 [5]
  viability at 0.8 µM: 83.7%
HepG2 [6]
  Activity: 0.95%
[7]
  Activity: Non-Toxic
In vitro
  selectivity ratio: 29.1
NCI-H596 [8]
  IC50: 7.07 µM
HepG2 [9]
  Activity: 8.52%
NCI-H596 [10]
  viability at 1.6 µM: 90.8%
NCI-H596 [11]
  Activity: 4.22%
HepG2 [12]
  Activity: 7.21%
HepG2 [13]
  Activity: 15.3%
HepG2 [14]
  Activity: 0.52%
L02
  IC50: 21 µM
A549 [15]
  IC50: 4.55 µM
A549 [16]
  IC50: 720 nM
HepG2 [17]
  Activity: 11.48%
NCI-H596 [18]
  Activity: Active
[19]
  Drug metabolism: 1530 micromol/min/micromol protein
HepG2 [20]
  IC50: 1600 nM
HepG2 [21]
  Activity: 53%
HepG2 [22]
  viability at 3.2 µM: 71.1%
HepG2 [23]
  Activity: Active
NCI-H596 [24]
  Activity: 4.81%
HepG2 [25]
  Activity: 48.54%
HepG2 [26]
  Activity: 12.67%
NCI-H596 [27]
  Activity: 0.14%
HepG2 [28]
  Activity: 0.53%
